US11389447B2 (Janssen Sciences Ireland Unlimited Company, priority 2006, dated 2022)

Assay: Kinetic study: plasma kinetics of TMC278 after single IM or SC injection of a nanosuspension;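 note: healthy male beagle dogs injected in both biceps femoris muscles (IM) or both thoracal sides (SC), total volume 0.2 mL/kg, drug measured in plasma from blood samples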
Type: in vivo, male beagle dogs
Conditions: for AUC0-312 h / AUC0-696 h / AUC0-2208 h / Cmax / Tmax / plasma concentration of TMC278: single IM 5 mg eq./kg TMC278.HCl nanosuspension
Method: Six healthy male beagle dogs with body weights ranging from 8 to 16 kg at the start of the study, were used. Each dog was identified by an ear tattoo number. Two dogs were dosed intramuscularly (IM) in the left and right m. biceps femoris (treatment group A). […] Two dogs were dosed subcutaneously (SC) in the left and right thoracal region. The injection volume was 2×0.1 ml/kg in all treatment groups. A 20 G needle was used.
Blood samples of 3 ml were taken from the left jugular vein from all dogs on day 0 at 0 h (predose), 20 min, 1 h, 3 h, 8 h and 24 h post-dose and further on days 2, 3, 6, 8, 10, 13, 16, 20, 23, 27, 29, 36, 43, 50, 57, 64, 71, 78, 85 and 92 at approximately 8 AM. Blood samples were placed on EDTA, EDTA Vacuette Greiner, Cat. No. 454086, Greiner Labortechnik N.V.). Within 2 h of blood sampling, samples were centrifuged at room temperature at about 1900×g for 10 minutes to allow plasma separation. Plasma was immediately transferred into a second tube and stored in the freezer within 2 hours after the start of centrifugation.

## Cc1cc(/C=C/C#N)cc(C)c1Nc1ccnc(Nc2ccc(C#N)cc2)n1.Cl [TMC278.HCl]
Injectable formulation of nanonised substance, 5 mg/kg, male beagle dogs
  blood plasma levels after injection (in words): stable blood plasma levels during a prolonged period of time
Dog 19072
  AUC0-312 h: 15000 ng·h/mL
  AUC0-696 h: 20300 ng·h/mL
  AUC0-2208 h: 27400 ng·h/mL
  Cmax: 85.6 ng/mL
  Tmax: 48 h
Dog 19072, 0 h (d0, predose)
  plasma concentration of TMC278: <1.00 ng/mL
Dog 19072, 1 h
  plasma concentration of TMC278: 7.80 ng/mL
Dog 19072, 3 h
  plasma concentration of TMC278: 14.7 ng/mL
Dog 19072, 8 h
  plasma concentration of TMC278: 32.2 ng/mL
Dog 19072, 24 h (d1)
  plasma concentration of TMC278: 50.1 ng/mL
Dog 19072, 48 h (d2)
  plasma concentration of TMC278: 85.6 ng/mL
Dog 19072, 72 h (d3)
  plasma concentration of TMC278: 47.5 ng/mL
Dog 19072, 144 h (d6)
  plasma concentration of TMC278: 48.3 ng/mL
Dog 19072, 192 h (d8)
  plasma concentration of TMC278: 46.8 ng/mL
Dog 19072, 240 h (d10)
  plasma concentration of TMC278: 55.7 ng/mL
Dog 19072, 312 h (d13)
  plasma concentration of TMC278: 27.0 ng/mL
Dog 19072, 384 h (d16)
  plasma concentration of TMC278: 17.0 ng/mL
Dog 19072, 480 h (d20)
  plasma concentration of TMC278: 13.7 ng/mL
Dog 19072, 648 h (d27)
  plasma concentration of TMC278: 7.91 ng/mL
Dog 19072, 696 h (d29)
  plasma concentration of TMC278: 10.2 ng/mL
Dog 19072, 864 h (d36)
  plasma concentration of TMC278: 6.18 ng/mL
Dog 19072, 1032 h (d43)
  plasma concentration of TMC278: 6.32 ng/mL
Dog 19072, 1200 h (d50)
  plasma concentration of TMC278: 4.56 ng/mL
Dog 19072, 1368 h (d57)
  plasma concentration of TMC278: 4.73 ng/mL
Dog 19072, 1536 h (d64)
  plasma concentration of TMC278: 4.47 ng/mL
Dog 19072, 1704 h (d71)
  plasma concentration of TMC278: 3.38 ng/mL
Dog 19072, 1872 h (d78)
  plasma concentration of TMC278: 3.12 ng/mL
Dog 19072, 2040 h (d85)
  plasma concentration of TMC278: 3.20 ng/mL
Dog 19072, 2208 h (d92)
  plasma concentration of TMC278: 2.96 ng/mL
Dog 19080
  AUC0-312 h: 20900 ng·h/mL
  AUC0-696 h: 30500 ng·h/mL
  AUC0-2208 h: 39900 ng·h/mL
  Cmax: 105 ng/mL
  Tmax: 48 h
Dog 19080, 0 h (d0, predose)
  plasma concentration of TMC278: <1.00 ng/mL
Dog 19080, 1 h
  plasma concentration of TMC278: 7.19 ng/mL
Dog 19080, 3 h
  plasma concentration of TMC278: 16.3 ng/mL
Dog 19080, 8 h
  plasma concentration of TMC278: 27.1 ng/mL
Dog 19080, 24 h (d1)
  plasma concentration of TMC278: 69.8 ng/mL
Dog 19080, 48 h (d2)
  plasma concentration of TMC278: 105 ng/mL
Dog 19080, 72 h (d3)
  plasma concentration of TMC278: 69.5 ng/mL
Dog 19080, 144 h (d6)
  plasma concentration of TMC278: 62.3 ng/mL
Dog 19080, 192 h (d8)
  plasma concentration of TMC278: 65.8 ng/mL
Dog 19080, 240 h (d10)
  plasma concentration of TMC278: 82.2 ng/mL
Dog 19080, 312 h (d13)
  plasma concentration of TMC278: 45.8 ng/mL
Dog 19080, 384 h (d16)
  plasma concentration of TMC278: 31.9 ng/mL
Dog 19080, 480 h (d20)
  plasma concentration of TMC278: 25.5 ng/mL
Dog 19080, 648 h (d27)
  plasma concentration of TMC278: 14.4 ng/mL
Dog 19080, 696 h (d29)
  plasma concentration of TMC278: 18.8 ng/mL
Dog 19080, 864 h (d36)
  plasma concentration of TMC278: 11.4 ng/mL
Dog 19080, 1032 h (d43)
  plasma concentration of TMC278: 8.18 ng/mL
Dog 19080, 1200 h (d50)
  plasma concentration of TMC278: 5.68 ng/mL
Dog 19080, 1368 h (d57)
  plasma concentration of TMC278: 5.08 ng/mL
Dog 19080, 1536 h (d64)
  plasma concentration of TMC278: 4.43 ng/mL
Dog 19080, 1704 h (d71)
  plasma concentration of TMC278: 3.90 ng/mL
Dog 19080, 1872 h (d78)
  plasma concentration of TMC278: 3.20 ng/mL
Dog 19080, 2040 h (d85)
  plasma concentration of TMC278: 4.00 ng/mL
Dog 19080, 2208 h (d92)
  plasma concentration of TMC278: 2.81 ng/mL
Mean of 2 dogs
  AUC0-312 h: 18000 ng·h/mL
  AUC0-696 h: 25400 ng·h/mL
  AUC0-2208 h: 33600 ng·h/mL
  Cmax: 95.3 ng/mL
  Tmax: 48 h
Mean of 2 dogs, 0 h (d0, predose)
  plasma concentration of TMC278: <1.00 ng/mL
Mean of 2 dogs, 1 h
  plasma concentration of TMC278: 7.50 ng/mL
Mean of 2 dogs, 3 h
  plasma concentration of TMC278: 15.5 ng/mL
Mean of 2 dogs, 8 h
  plasma concentration of TMC278: 29.7 ng/mL
Mean of 2 dogs, 24 h (d1)
  plasma concentration of TMC278: 60.0 ng/mL
Mean of 2 dogs, 48 h (d2)
  plasma concentration of TMC278: 95.3 ng/mL
Mean of 2 dogs, 72 h (d3)
  plasma concentration of TMC278: 58.5 ng/mL
Mean of 2 dogs, 144 h (d6)
  plasma concentration of TMC278: 55.3 ng/mL
Mean of 2 dogs, 192 h (d8)
  plasma concentration of TMC278: 56.3 ng/mL
Mean of 2 dogs, 240 h (d10)
  plasma concentration of TMC278: 69.0 ng/mL
Mean of 2 dogs, 312 h (d13)
  plasma concentration of TMC278: 36.4 ng/mL
Mean of 2 dogs, 384 h (d16)
  plasma concentration of TMC278: 24.5 ng/mL
Mean of 2 dogs, 480 h (d20)
  plasma concentration of TMC278: 19.6 ng/mL
Mean of 2 dogs, 648 h (d27)
  plasma concentration of TMC278: 11.2 ng/mL
Mean of 2 dogs, 696 h (d29)
  plasma concentration of TMC278: 14.5 ng/mL
Mean of 2 dogs, 864 h (d36)
  plasma concentration of TMC278: 8.79 ng/mL
Mean of 2 dogs, 1032 h (d43)
  plasma concentration of TMC278: 7.25 ng/mL
Mean of 2 dogs, 1200 h (d50)
  plasma concentration of TMC278: 5.12 ng/mL
Mean of 2 dogs, 1368 h (d57)
  plasma concentration of TMC278: 4.91 ng/mL
Mean of 2 dogs, 1536 h (d64)
  plasma concentration of TMC278: 4.45 ng/mL
Mean of 2 dogs, 1704 h (d71)
  plasma concentration of TMC278: 3.64 ng/mL
Mean of 2 dogs, 1872 h (d78)
  plasma concentration of TMC278: 3.16 ng/mL
Mean of 2 dogs, 2040 h (d85)
  plasma concentration of TMC278: 3.60 ng/mL
Mean of 2 dogs, 2208 h (d92)
  plasma concentration of TMC278: 2.89 ng/mL
